Data: the NIST ThermoML archive (doi:10.1021/acs.jced.5b00662)
Numbers after ± are expanded uncertainties.

Assay: xn = mol fraction of the nth substance listed
Conditions: 100 kPa, Liquid; for speed of sound: Sing-around technique in a fixed-path interferometer; for mass density: Vibrating tube method

COCCOCCO [2-(2-methoxyethoxy)ethanol] + O
Conditions	mass density [kg/m3]	speed of sound [m/s]
283.15 K, x1 = 0.9373	–	1473.4 ± 1.5
283.15 K, x1 = 0.9483	1029.62 ± 2	1472.6 ± 1.5
283.15 K, x1 = 0.9601	1029.5 ± 2	1471.2 ± 1.6
283.15 K, x1 = 0.9674	1029.29 ± 2	1470.8 ± 1.6
283.15 K, x1 = 0.9893	1028.84 ± 2	1468.4 ± 1.6
283.15 K, x1 = 0.9932	1028.73 ± 2	1468.6 ± 1.6
288.15 K, x1 = 0.9373	–	1455.8 ± 1.5
288.15 K, x1 = 0.9483	1025.24 ± 2	1455.1 ± 1.5
288.15 K, x1 = 0.9601	1025.13 ± 2	1453.9 ± 1.6
288.15 K, x1 = 0.9674	1024.9 ± 2	1453.3 ± 1.6
288.15 K, x1 = 0.9893	1024.45 ± 2	1451 ± 1.6
288.15 K, x1 = 0.9932	1024.35 ± 2	1451 ± 1.6
293.15 K, x1 = 0.9373	–	1438.7 ± 1.5
293.15 K, x1 = 0.9483	1020.87 ± 2	1438 ± 1.5
293.15 K, x1 = 0.9601	1020.74 ± 2	1436.7 ± 1.5
293.15 K, x1 = 0.9674	1020.52 ± 2	1436.1 ± 1.6
293.15 K, x1 = 0.9893	1020.06 ± 2	1433.7 ± 1.6
293.15 K, x1 = 0.9932	1019.95 ± 2	1433.4 ± 1.6
298.15 K, x1 = 0.9373	–	1421.6 ± 1.5
298.15 K, x1 = 0.9483	1016.47 ± 2	1420.8 ± 1.5
298.15 K, x1 = 0.9601	1016.34 ± 2	1419.5 ± 1.5
298.15 K, x1 = 0.9674	1016.12 ± 2	1418.9 ± 1.6
298.15 K, x1 = 0.9893	1015.65 ± 2	1416.4 ± 1.6
298.15 K, x1 = 0.9932	1015.55 ± 2	1416.1 ± 1.6
303.15 K, x1 = 0.9373	–	1404.5 ± 1.5
303.15 K, x1 = 0.9483	1012.06 ± 2	1403.6 ± 1.5
303.15 K, x1 = 0.9601	1011.93 ± 2	1402.3 ± 1.5
303.15 K, x1 = 0.9674	1011.71 ± 2	1401.7 ± 1.6
303.15 K, x1 = 0.9893	1011.24 ± 2	1399.1 ± 1.6
303.15 K, x1 = 0.9932	1011.12 ± 2	1398.9 ± 1.6
308.15 K, x1 = 0.9373	–	1387.3 ± 1.5
308.15 K, x1 = 0.9483	1007.63 ± 2	1386.5 ± 1.5
308.15 K, x1 = 0.9601	1007.5 ± 2	1385.1 ± 1.5
308.15 K, x1 = 0.9674	1007.28 ± 2	1384.5 ± 1.5
308.15 K, x1 = 0.9893	1006.8 ± 2	1381.9 ± 1.6
308.15 K, x1 = 0.9932	1006.69 ± 2	1381.6 ± 1.6
313.15 K, x1 = 0.9373	–	1370.3 ± 1.5
313.15 K, x1 = 0.9483	1003.19 ± 2	1369.4 ± 1.5
313.15 K, x1 = 0.9601	1003.06 ± 2	1368.1 ± 1.5
313.15 K, x1 = 0.9674	1002.83 ± 2	1367.5 ± 1.5
313.15 K, x1 = 0.9893	1002.35 ± 2	1364.9 ± 1.5
313.15 K, x1 = 0.9932	1002.24 ± 2	1364.6 ± 1.6
323.15 K, x1 = 0.9373	–	1336.5 ± 1.5
323.15 K, x1 = 0.9483	994.251 ± 2	1335.6 ± 1.5
323.15 K, x1 = 0.9601	994.119 ± 2	1334.3 ± 1.5
323.15 K, x1 = 0.9674	993.893 ± 2	1333.7 ± 1.5
323.15 K, x1 = 0.9893	993.397 ± 2	1330.9 ± 1.6
323.15 K, x1 = 0.9932	993.288 ± 2	1330.3 ± 1.6
333.15 K, x1 = 0.9373	–	1302.9 ± 1.5
333.15 K, x1 = 0.9483	985.224 ± 2	1302.1 ± 1.5
333.15 K, x1 = 0.9601	985.089 ± 2	1300.7 ± 1.5
333.15 K, x1 = 0.9674	984.87 ± 2	1300.2 ± 1.5
333.15 K, x1 = 0.9893	984.365 ± 2	1297.3 ± 1.6
333.15 K, x1 = 0.9932	984.259 ± 2	1296.7 ± 1.6
343.15 K, x1 = 0.9373	–	1269.6 ± 1.5
343.15 K, x1 = 0.9483	976.029 ± 2	1268.8 ± 1.5
343.15 K, x1 = 0.9601	975.972 ± 2	1267.4 ± 1.5
343.15 K, x1 = 0.9674	975.754 ± 2	1266.9 ± 1.5
343.15 K, x1 = 0.9893	975.241 ± 2	1263.9 ± 1.6
343.15 K, x1 = 0.9932	975.146 ± 2	1263.3 ± 1.6

CCOCCOCCO [3,6-dioxa-1-octanol] + O
Conditions	mass density, x1 = 0.9674 [kg/m3]	mass density, x1 = 0.974 [kg/m3]	mass density, x1 = 0.9826 [kg/m3]	mass density, x1 = 0.9887 [kg/m3]	mass density, x1 = 0.9899 [kg/m3]	speed of sound, x1 = 0.9674 [m/s]	speed of sound, x1 = 0.974 [m/s]	speed of sound, x1 = 0.9826 [m/s]	speed of sound, x1 = 0.9887 [m/s]	speed of sound, x1 = 0.9899 [m/s]
283.15 K	997.734 ± 2.1	997.587 ± 2.1	997.387 ± 2.1	997.339 ± 2.1	997.227 ± 2.1	1430.8 ± 2.3	1430.3 ± 2.3	1429.4 ± 2.3	1429.6 ± 2.3	1429.6 ± 2.3
288.15 K	993.31 ± 2.1	993.16 ± 2.1	992.963 ± 2.1	992.908 ± 2.1	992.793 ± 2.1	1412.8 ± 2.3	1412.2 ± 2.3	1411.4 ± 2.3	1411.4 ± 2.3	1411.2 ± 2.3
293.15 K	988.877 ± 2.1	988.725 ± 2.1	988.528 ± 2.1	988.475 ± 2.1	988.357 ± 2.1	1394.9 ± 2.3	1394.3 ± 2.3	1393.5 ± 2.3	1393.6 ± 2.3	1393.3 ± 2.3
298.15 K	984.434 ± 2.1	984.285 ± 2.1	984.088 ± 2.1	984.028 ± 2.1	983.913 ± 2.1	1377.3 ± 2.3	1376.5 ± 2.3	1375.7 ± 2.3	1375.7 ± 2.3	1375.4 ± 2.3
303.15 K	979.981 ± 2.1	979.829 ± 2.1	979.636 ± 2.1	979.572 ± 2.1	979.459 ± 2.1	1359.6 ± 2.3	1358.8 ± 2.3	1358 ± 2.3	1357.9 ± 2.3	1357.5 ± 2.3
308.15 K	975.514 ± 2.1	975.363 ± 2.1	975.164 ± 2.1	975.102 ± 2.1	974.991 ± 2.1	1342 ± 2.3	1341.3 ± 2.3	1340.5 ± 2.3	1340.1 ± 2.3	1340 ± 2.3
313.15 K	971.029 ± 2.1	970.88 ± 2.1	970.684 ± 2.1	970.62 ± 2.1	970.511 ± 2.1	1324.4 ± 2.3	1323.9 ± 2.3	1323.1 ± 2.3	1322.7 ± 2.3	1322.5 ± 2.3
323.15 K	962.022 ± 2	961.873 ± 2.1	961.673 ± 2.1	961.608 ± 2.1	961.499 ± 2.1	1289.8 ± 2.3	1289.3 ± 2.3	1288.5 ± 2.3	1287.9 ± 2.3	1287.8 ± 2.3
333.15 K	952.945 ± 2	952.794 ± 2	952.591 ± 2.1	952.534 ± 2.1	952.422 ± 2.1	1255.6 ± 2.3	1255 ± 2.3	1254.2 ± 2.3	1253.7 ± 2.3	1253.5 ± 2.3
343.15 K	943.775 ± 2	943.629 ± 2	943.425 ± 2.1	943.381 ± 2.1	943.264 ± 2.1	1221.7 ± 2.3	1221.1 ± 2.3	1220.3 ± 2.3	1220 ± 2.3	1219.7 ± 2.3
